“Also recorded” adds a separate entry of the source.
How the values were obtained:
[1] = biological target: EZH2 (Core Histone) (Homo sapiens, UniProt Q15910); assay: EZH2 inhibition assay (Reaction Biology Corporation); format: biochemical
Description: The EZH2 inhibitory ability of the synthesized adduct was assessed by Reaction Biology Corporation, Malvern, PA (http://www.reactionbiology.com).

[2] = biological target: HSP90a (Homo sapiens, UniProt P07900); assay: In vitro HSP90 inhibition assay (Reaction Biology Corporation); format: biochemical
Description: The HSP90 inhibitory activity of the synthesized adduct was assessed by Reaction Biology Corporation, Malvern, PA (http://www.reactionbiology.com).
An in-vitro experiment was performed to assess the inhibitory effect of the synthesized adducts on the heat shock protein 90 (HSP90).

[3] = system: Pt3R cells; assay: Cell viability / cytotoxicity of TMZ-resistant Pt3R cells (CCK8); format: cell-based, human
[4] = system: Pt3 cells; assay: Cellular ROS assay (DHR, flow cytometry) in Pt3 cells; format: cell-based, human; conditions: 48 h, FIG. 7A
Excerpt: (§1) Dihydrorhodamine 123 (DHR; Thermo Fisher Scientific, Waltham, MA, USA) was used to label cellular ROS detected by flow cytometry, and the MitoSOX reagent (Thermo Fisher Scientific) was used to label mitochondrial ROS [55].
(§2) Treatment concentration of MPT1A059 was indicated.

[5] = system: Pt3R cells; assay: Cellular ROS assay (DHR, flow cytometry) in Pt3R cells; format: cell-based, human; conditions: 48 h, FIG. 7A
Excerpt: as §1, §2

[6] = system: mitochondrial ROS; assay: MitoSOX assay of mitochondrial ROS; format: cell-based
Description: as §1
Thus, the ability of compound 7 to disturb redox homeostasis in TMZ-resistant cells and attain amplified therapeutic efficacy for GBM was evaluated. In both Pt3 and Pt3R cells, treatment with compound 7 for 48 h increased the ROS level (FIG. 7A). […] Moreover, it was also observed that compound 7 increased mitochondria-derived ROS.
as §2

Chain of EZH2 (Core Histone) (Q15910 whole entry): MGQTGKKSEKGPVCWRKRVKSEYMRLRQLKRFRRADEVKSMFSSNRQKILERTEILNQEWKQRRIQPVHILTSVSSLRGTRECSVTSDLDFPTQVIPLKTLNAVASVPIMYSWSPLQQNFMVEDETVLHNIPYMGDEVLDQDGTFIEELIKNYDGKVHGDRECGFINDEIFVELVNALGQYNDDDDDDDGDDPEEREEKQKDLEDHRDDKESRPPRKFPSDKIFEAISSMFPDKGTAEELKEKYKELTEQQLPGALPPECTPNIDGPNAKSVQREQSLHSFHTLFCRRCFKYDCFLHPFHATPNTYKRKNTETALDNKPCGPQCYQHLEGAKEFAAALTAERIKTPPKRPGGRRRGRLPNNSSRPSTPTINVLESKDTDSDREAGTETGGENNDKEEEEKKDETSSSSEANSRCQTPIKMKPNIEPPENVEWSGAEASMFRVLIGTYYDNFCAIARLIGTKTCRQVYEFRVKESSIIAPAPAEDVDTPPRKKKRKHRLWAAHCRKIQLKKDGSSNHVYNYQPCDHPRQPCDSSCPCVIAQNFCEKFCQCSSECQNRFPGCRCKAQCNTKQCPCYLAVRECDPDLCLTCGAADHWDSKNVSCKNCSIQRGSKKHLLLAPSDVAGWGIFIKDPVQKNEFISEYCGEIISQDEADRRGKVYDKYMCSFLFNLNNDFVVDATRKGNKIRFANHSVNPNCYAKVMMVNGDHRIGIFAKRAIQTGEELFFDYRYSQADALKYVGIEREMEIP
Chain of EZH2 (Core Histone) (O75530 whole entry partner): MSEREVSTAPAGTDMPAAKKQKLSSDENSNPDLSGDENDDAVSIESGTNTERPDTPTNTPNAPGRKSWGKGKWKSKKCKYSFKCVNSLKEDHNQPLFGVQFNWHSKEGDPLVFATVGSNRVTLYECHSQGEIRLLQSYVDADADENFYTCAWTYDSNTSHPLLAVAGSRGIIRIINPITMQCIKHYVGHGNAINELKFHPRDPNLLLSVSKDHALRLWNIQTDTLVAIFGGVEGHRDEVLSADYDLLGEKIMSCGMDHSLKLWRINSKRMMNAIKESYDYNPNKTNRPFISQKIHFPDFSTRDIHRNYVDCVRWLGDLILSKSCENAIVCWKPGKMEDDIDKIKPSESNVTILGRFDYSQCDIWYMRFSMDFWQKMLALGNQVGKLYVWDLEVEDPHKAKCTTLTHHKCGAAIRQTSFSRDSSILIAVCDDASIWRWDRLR
Chain of EZH2 (Core Histone) (Q15022 whole entry partner): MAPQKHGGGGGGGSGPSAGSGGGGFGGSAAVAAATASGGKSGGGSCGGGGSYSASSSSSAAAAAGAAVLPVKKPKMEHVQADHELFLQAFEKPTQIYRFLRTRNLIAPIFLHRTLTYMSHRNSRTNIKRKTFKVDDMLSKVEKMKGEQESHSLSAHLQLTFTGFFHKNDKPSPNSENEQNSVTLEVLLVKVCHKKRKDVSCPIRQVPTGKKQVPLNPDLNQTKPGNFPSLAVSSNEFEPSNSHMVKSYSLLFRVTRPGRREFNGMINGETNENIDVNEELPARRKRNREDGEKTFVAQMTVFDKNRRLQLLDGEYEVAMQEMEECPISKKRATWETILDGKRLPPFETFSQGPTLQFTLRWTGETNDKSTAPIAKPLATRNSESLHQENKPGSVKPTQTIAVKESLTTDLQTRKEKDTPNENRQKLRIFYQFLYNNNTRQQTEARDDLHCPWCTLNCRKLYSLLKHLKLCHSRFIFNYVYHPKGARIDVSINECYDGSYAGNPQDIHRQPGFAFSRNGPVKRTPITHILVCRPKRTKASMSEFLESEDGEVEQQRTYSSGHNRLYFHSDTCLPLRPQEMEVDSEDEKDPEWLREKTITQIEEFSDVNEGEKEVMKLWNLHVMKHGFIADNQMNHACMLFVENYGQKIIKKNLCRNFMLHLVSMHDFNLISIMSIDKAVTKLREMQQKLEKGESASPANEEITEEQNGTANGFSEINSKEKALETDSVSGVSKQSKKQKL
Chain of EZH2 (Core Histone) (Q09028 whole entry partner): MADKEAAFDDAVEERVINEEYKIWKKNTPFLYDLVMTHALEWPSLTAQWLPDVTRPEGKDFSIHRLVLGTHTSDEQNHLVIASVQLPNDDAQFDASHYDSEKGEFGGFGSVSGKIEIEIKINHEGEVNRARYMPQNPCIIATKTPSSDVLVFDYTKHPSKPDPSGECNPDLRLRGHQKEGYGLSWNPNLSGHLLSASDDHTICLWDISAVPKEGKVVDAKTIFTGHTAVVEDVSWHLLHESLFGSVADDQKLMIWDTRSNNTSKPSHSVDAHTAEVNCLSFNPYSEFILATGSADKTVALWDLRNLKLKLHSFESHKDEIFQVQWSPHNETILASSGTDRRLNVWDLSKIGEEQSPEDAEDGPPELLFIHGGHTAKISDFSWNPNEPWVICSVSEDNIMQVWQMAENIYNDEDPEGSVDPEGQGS
Chain of EZH2 (Core Histone) (Q6ZN18 whole entry partner): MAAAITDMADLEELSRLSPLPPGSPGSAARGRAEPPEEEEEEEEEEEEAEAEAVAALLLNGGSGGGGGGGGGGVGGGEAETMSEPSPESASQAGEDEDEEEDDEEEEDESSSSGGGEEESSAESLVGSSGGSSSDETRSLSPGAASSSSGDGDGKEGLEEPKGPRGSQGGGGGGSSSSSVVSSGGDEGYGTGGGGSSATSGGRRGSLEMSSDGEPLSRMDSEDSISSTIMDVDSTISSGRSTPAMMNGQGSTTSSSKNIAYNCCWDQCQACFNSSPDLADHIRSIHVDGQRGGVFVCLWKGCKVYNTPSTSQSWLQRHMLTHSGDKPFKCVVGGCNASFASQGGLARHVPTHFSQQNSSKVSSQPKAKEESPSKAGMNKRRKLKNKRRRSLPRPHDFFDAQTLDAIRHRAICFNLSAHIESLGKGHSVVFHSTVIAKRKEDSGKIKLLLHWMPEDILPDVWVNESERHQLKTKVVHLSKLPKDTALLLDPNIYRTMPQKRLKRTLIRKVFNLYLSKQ

## CCN(c1cc(-c2cccc(N(C)C(=O)c3cc(C(C)C)c(O)cc3O)c2)cc(C(=O)NCc2c(C)cc(C)[nH]c2=O)c1C)C1CCOCC1 [Compound 7, 3′-(2,4-dihydroxy-5-isopropyl-N-methylbenzamido)-N-((4,6-dimethyl-2-oxo-1,2-dihydropyridin-3-yl)methyl)-5-(ethyl(tetrahydro-2H-pyran-4-yl)amino)-4-methyl-[1,1′-biphenyl]-3-carboxamide]
[1]
  IC50: 6.29 nM
[2]
  HSP90 inhibitory potential in words: conferred HSP90 inhibitory potential
  IC50: 60.1 nM
[3]
  cell growth / viability inhibitory effect in words: the only ones to exert cell viability inhibitory potential; also recorded: the most effective against the Pt3R cell lines
[3]; read-out: Cell growth inhibitory effect IC50
  IC50: 1010 nM
[4]
  ROS level: increased
[5]
  ROS level: increased
[6]
  mitochondria-derived ROS: increased
[6]; FIG. 7C
  MitoSOX red signal representing ROS produced from mitochondria: remarkably enhanced

Reference: patent US20260365637A1, “DUAL EZH2-HSP90 INHIBITORS” (TAIPEI MEDICAL UNIVERSITY, priority 2023, published 2026)
